Test results as given in patent US20240254082A1, “Substituted Isoindoline-1, 3-diketone PDE4 Inhibitor and Pharmaceutical Application Thereof” (SUZHOU INTRAGRAND PHARMA CO., LTD, priority 2021, published 2024).

Experiments:
Assay type in all cases: biochemical
PDE10A1 = PDE10A1 (Homo sapiens, UniProt Q9Y233); assay: Selective inhibitory activity assay, PDE10A1; conditions: read-out: Inhibition rate (%) of PDE10A1
Procedure: (§1) 7. Selective inhibitory activity assay for PDE1, 2, 3, 5, 7, 10 and 11 enzymes
(§2) The selective specificity of compounds for PDE4 was assessed by assaying single concentrations of the compounds. For example, PDE1a enzyme, PDElc enzyme, PDE2a enzyme, PDE3a enzyme, PDE3b enzyme, PDE5a1 enzyme, PDE7a enzyme, PDE7b enzyme, PDE10a1 enzyme and PDE11a4 enzyme were tested. The selective inhibitory effects of different compounds on the enzymatic activities of PDEIC, PDE2A, PDE3B, PDE5A1, PDE7A, and PDE10A1 at concentrations of 10 μM and 1 μM, respectively, are shown in the table below: […]

PDE4C1 = molecular target: T1, PDE4C1 (Homo sapiens, UniProt Q08493); assay: Inhibition assay of PDE4C1 enzyme (FP kit)
T1 construct: purchased BPS 60384
Procedure: 5. Inhibition assay of PDE4C1 enzyme:
(§3) Materials and Instruments:
FAM substrate: 12.5 μL of a FAM substrate stock solution was added into 1250 μL of PDE assay buffer. 12.5 μL of the diluted substrate was added to each reaction well.
(§4) 5 μL of the compound stock solution was added to 45 μL of DMSO to prepare a 1 mM diluent. 5 μL of the 1 mM diluent was added to 45 μL of PDE assay buffer to prepare a gradient dilution starting point. Then, according to the method of adding 5 μL of the previous concentration solution to 15 μL of PDE assay buffer, gradient dilution was carried out for 9 times to prepare compound working solutions with 10 concentrations. The working solutions were added to compound wells at 2.5 μL/well.
PDE4C1: First, a PDE4C1 stock solution was diluted by 100 times to a concentration of 3.2 ng/μL, 13.75 μL of the diluent was added to 1100 μL of PDE assay buffer, and the mixture was added to all compound wells and positive control wells at 10 μL/well. 10 μL of PDE assay buffer was added to substrate control wells.
Binding solution: 50 μL of binder was added into 5 mL of binder diluent, and then mixed well. The obtained mixture was added to all wells at 50 μL/well.
(§5) FPsub=Substrate control FP.

PDE4B2 = molecular target: T2, PDE4B2 (Homo sapiens, UniProt Q07343); assay: Inhibition assay of PDE4B2 enzyme (FP kit)
T2 construct: purchased BPS 60343
Procedure: 4. Inhibition assay of PDE4B2 enzyme:
as §3
(§6) FAM substrate: 25 μL of a FAM substrate stock solution was added into 2500 μL of PDE assay buffer. 25 μL of the diluted substrate was added to each reaction well.
as §4, with “5” for “2.5”
(§7) PDE4B2: First, a PDE4B2 stock solution was diluted by 100 times to a concentration of 5.2 ng/μL, 3.2 μL of the diluent was added to 2200 μL of PDE assay buffer, and the mixture was added to all compound wells and positive control wells at 20 μL/well. 20 μL of PDE assay buffer was added to substrate control wells.
Binding solution: 95 μL of binder was added into 9.5 mL of binder diluent, and then mixed well. The obtained mixture was added to all wells at 100 μL/well.
as §5

PDE4D3 = PDE4D3 (Homo sapiens, UniProt Q08499); assay: Inhibition assay of PDE4D3 enzyme (TR-FRET kit)
Procedure: 2. Inhibition assay of PDE4D3 enzyme:
as §3
FAM substrate: A stock solution of 20 μM FAM substrate was diluted to 200 nM with PDE assay buffer. 12.5 μL of the diluted substrate was added to each reaction well.
as §4
PDE4D3: 0.054 μL of a PDE4D3 recombinase stock solution was added to 1500 μL of PDE buffer, and the mixture was added to all compound wells and positive control wells at 10 μL/well. 10 μL of PDE assay buffer was added to substrate control wells.
Binding solution: 3750 μL of binding buffer A and 3750 μL of binding buffer B were mixed well. Then, 150 μL of a binder was added into the mixture and mixed well. 7.5 μL of a Tb donor was added and mixed well. The obtained mixture was added to all wells at 50 μL/well.
S520=Read value of sample 520 nm
S490=Read value of sample 490 nm
Tb520=Read value of Tb only 520 nm
Tb490=Read value of Tb only 490 nm
FRETp=Positive control FRET
FRETsub=Substrate control FRET.

PDE5A1 = PDE5A1 (Homo sapiens, UniProt O76074); assay: Selective inhibitory activity assay, PDE5A1; conditions: read-out: Inhibition rate (%) of PDE5A1
Procedure: as §1, §2

PDE2A = PDE2A (Homo sapiens, UniProt O00408); assay: Selective inhibitory activity assay, PDE2A; conditions: read-out: Inhibition rate (%) of PDE2A
Procedure: as §1, §2

PDE1C = PDE1C (Homo sapiens, UniProt Q14123); assay: Selective inhibitory activity assay, PDE1C; conditions: read-out: Inhibition rate (%) of PDE1C
Procedure: as §1, §2

PDE4A1 = molecular target: T3, PDE4A1 (Homo sapiens, UniProt P27815); assay: Inhibition assay of PDE4A1 enzyme (FP kit)
T3 construct: purchased BPS 60340
Procedure: 3. Inhibition assay of PDE4A1 enzyme:
as §3, §6
as §4, with “5” for “2.5”
as §7, with “PDE4A1:” for “PDE4B2:”, “PDE4A1” for “PDE4B2”, “4.9” for “5.2”, “1.8” for “3.2”
Binding solution: 95 μL of binding buffer was added into 9.5 mL of binder diluent, and then mixed well. The obtained mixture was added to all wells at 100 μL/well.
as §5

PDE7A = PDE7A (Homo sapiens, UniProt Q13946); assay: Selective inhibitory activity assay, PDE7A; conditions: read-out: Inhibition rate (%) of PDE7A
Procedure: as §1, §2

PDE3B = PDE3B (Homo sapiens, UniProt Q13370); assay: Selective inhibitory activity assay, PDE3B; conditions: read-out: Inhibition rate (%) of PDE3B
Procedure: as §1, §2

Sequence of PDE7A (Q13946 whole entry, species assumed): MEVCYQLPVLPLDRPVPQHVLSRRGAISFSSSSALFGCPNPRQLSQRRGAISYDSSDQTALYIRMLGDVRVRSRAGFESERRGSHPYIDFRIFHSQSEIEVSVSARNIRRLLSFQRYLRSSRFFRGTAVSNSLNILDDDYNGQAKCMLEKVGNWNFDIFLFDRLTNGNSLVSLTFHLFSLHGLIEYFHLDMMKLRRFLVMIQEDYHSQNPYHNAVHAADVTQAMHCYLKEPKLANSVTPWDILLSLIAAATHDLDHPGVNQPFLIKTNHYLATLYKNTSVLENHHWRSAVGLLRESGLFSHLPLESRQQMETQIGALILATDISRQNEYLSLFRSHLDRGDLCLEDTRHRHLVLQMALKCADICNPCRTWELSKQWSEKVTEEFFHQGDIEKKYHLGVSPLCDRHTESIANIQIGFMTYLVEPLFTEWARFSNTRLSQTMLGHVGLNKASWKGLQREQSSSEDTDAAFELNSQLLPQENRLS
T1 sequence (Q08493 whole entry): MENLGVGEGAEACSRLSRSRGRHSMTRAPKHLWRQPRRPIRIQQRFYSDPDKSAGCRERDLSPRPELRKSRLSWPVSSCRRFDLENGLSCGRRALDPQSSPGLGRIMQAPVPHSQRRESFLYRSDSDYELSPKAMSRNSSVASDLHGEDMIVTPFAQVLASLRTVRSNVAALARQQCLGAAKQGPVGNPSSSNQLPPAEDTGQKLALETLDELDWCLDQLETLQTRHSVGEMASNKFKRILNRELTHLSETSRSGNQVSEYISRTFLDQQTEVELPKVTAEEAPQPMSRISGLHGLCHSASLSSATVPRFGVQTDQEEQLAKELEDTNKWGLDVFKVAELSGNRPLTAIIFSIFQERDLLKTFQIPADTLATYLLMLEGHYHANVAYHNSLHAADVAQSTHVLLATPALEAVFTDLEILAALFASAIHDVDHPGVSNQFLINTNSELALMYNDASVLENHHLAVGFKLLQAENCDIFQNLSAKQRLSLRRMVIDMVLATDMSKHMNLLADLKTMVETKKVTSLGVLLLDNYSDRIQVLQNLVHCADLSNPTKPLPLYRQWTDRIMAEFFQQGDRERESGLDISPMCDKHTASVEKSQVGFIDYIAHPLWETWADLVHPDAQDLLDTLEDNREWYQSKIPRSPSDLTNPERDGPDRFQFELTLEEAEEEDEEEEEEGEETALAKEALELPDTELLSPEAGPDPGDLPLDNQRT
Sequence of PDE4D3 (Q08499 1-673 isoform Q08499-2): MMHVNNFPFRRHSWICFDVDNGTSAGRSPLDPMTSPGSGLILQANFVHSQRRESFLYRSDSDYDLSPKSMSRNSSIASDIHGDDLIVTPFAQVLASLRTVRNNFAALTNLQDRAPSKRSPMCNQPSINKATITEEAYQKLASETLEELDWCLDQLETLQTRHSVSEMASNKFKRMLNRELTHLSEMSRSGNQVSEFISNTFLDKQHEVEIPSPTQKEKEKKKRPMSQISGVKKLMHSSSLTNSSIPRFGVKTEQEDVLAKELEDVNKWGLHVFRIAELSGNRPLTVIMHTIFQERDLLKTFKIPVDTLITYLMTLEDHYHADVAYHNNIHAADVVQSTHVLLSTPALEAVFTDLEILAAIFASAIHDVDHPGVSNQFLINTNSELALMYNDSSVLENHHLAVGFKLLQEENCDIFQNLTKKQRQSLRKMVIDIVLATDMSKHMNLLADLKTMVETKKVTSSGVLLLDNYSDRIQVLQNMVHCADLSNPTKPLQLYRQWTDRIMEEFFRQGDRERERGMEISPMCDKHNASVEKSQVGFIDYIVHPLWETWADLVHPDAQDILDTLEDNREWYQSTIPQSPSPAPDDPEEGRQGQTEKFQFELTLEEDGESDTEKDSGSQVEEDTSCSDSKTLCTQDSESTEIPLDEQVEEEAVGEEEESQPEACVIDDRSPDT
Sequence of PDE10A1 (Q9Y233 1-779 isoform Q9Y233-1, species assumed): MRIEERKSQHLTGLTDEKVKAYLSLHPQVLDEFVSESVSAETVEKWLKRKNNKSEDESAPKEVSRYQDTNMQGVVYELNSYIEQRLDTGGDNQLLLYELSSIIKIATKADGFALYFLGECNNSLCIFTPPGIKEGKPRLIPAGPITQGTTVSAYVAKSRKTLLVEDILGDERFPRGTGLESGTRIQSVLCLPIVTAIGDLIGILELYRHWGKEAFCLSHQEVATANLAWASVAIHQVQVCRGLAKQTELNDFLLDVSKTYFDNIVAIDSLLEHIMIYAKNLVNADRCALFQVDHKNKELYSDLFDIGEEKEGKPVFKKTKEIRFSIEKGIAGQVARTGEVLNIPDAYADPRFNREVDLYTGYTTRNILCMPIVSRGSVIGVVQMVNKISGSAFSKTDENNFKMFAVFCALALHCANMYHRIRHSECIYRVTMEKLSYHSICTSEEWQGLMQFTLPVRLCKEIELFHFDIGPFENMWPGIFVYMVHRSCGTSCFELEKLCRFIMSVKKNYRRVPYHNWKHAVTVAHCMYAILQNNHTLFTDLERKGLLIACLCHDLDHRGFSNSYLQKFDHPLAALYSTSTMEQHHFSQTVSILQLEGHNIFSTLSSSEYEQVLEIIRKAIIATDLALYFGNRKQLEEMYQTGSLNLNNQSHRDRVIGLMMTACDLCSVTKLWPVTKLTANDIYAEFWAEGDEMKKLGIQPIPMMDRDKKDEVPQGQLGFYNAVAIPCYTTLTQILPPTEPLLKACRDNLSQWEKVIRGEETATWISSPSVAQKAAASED
T2 sequence (Q07343 1-564 isoform Q07343-2): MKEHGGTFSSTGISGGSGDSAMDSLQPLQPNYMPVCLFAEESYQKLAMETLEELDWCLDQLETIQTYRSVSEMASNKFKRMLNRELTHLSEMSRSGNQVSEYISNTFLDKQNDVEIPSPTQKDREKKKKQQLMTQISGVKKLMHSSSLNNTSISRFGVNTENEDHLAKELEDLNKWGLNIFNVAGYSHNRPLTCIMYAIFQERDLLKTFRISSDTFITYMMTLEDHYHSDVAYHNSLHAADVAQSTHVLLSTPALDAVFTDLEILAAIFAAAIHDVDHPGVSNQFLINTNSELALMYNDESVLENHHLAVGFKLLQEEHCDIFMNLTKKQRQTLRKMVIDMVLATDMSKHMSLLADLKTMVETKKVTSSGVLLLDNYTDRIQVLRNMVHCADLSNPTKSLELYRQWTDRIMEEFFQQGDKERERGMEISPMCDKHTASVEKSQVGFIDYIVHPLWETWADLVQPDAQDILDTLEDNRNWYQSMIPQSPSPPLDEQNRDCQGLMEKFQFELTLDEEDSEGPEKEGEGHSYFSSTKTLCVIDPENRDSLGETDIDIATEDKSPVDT
T3 sequence (P27815 1-647 isoform P27815-4): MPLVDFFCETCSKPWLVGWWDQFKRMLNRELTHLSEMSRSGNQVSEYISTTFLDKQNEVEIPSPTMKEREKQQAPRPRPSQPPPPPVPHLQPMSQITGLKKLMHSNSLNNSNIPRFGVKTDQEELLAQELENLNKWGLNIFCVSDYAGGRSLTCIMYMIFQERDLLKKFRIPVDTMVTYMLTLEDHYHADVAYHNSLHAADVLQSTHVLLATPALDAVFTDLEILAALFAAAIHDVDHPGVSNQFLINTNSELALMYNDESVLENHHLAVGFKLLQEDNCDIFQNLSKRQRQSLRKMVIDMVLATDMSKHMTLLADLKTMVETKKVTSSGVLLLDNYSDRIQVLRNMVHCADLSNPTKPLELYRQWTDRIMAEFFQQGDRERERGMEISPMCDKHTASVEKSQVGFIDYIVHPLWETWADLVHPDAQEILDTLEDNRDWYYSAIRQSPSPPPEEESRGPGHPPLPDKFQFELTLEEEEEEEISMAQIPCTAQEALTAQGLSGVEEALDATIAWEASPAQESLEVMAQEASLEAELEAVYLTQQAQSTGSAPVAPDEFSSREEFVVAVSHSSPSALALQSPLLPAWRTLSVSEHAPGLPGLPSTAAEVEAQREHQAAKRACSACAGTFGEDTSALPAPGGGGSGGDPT
Sequence of PDE1C (Q14123 whole entry, species assumed): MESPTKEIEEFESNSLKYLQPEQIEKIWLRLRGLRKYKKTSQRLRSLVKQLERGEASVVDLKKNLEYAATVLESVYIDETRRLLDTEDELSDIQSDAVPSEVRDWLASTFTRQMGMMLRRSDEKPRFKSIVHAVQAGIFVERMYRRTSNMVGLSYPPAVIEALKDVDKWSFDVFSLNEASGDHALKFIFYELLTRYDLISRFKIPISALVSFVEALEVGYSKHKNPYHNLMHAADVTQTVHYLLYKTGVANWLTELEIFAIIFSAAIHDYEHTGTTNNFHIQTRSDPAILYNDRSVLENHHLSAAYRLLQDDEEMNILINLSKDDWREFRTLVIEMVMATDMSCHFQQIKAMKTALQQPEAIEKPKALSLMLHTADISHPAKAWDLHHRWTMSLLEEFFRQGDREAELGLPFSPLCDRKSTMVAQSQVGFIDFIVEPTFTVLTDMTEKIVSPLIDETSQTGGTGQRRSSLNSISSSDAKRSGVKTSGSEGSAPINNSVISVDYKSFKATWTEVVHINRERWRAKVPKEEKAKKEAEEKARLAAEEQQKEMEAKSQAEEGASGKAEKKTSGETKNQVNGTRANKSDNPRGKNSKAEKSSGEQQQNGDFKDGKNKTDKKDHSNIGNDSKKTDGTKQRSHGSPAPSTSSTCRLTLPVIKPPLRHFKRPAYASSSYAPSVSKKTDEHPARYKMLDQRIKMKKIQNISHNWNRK

| SMILES | inhibition at 1 µM (PDE10A1) | inhibition at 10 µM (PDE10A1) | IC50 (PDE4C1) | IC50 (PDE4B2) | IC50 (PDE4D3) | inhibition at 1 µM (PDE5A1) | inhibition at 10 µM (PDE5A1) | inhibition at 1 µM (PDE2A) | inhibition at 10 µM (PDE2A) | inhibition at 1 µM (PDE1C) | inhibition at 10 µM (PDE1C) | IC50 (PDE4A1) | inhibition at 1 µM (PDE7A) | inhibition at 10 µM (PDE7A) | inhibition at 1 µM (PDE3B) | inhibition at 10 µM (PDE3B) |
| --- | --- | --- | --- | --- | --- | --- | --- | --- | --- | --- | --- | --- | --- | --- | --- | --- |
| CCCCCc1ccc(NC(=O)CC)c2c1C(=O)N([C@H](CS(C)(=O)=O)c1ccc(OC)c(OCC)c1)C2=O [Example 13, (S)-2-[1-(3-ethoxy-4-methoxyphenyl)-2-alkylsulfonylethyl]-4-propanamido-7-pentyl isoindoline-1,3-diketone] | 16.3% | -26.7% | 200 to 500 nM | 100 to 200 nM | 10 to 50 nM | 14.1% | 20.3% | 0.08% | 13.8% | 5.34% | 51.7% | 100 to 200 nM | 0% | 9.96% | 3.31% | 0.94% |
| [2H]C([2H])(CCCC)c1ccc(NC(C)=O)c2c1C(=O)N([C@H](CS(C)(=O)=O)c1ccc(OC)c(OCC)c1)C2=O [Example 32] |  |  | < 200 nM | < 100 nM | < 5 nM |  |  |  |  |  |  | < 100 nM |  |  |  |  |
| CCCCc1ccc(NC(=O)CCCCl)c2c1C(=O)N([C@H](CS(C)(=O)=O)c1ccc(OC)c(OCC)c1)C2=O [Example 27, (S)-2-[1-(3-ethoxy-4-methoxyphenyl)-2-alkylsulfonylethyl]-4-(γ-chlorobutyramido)-7-butyl isoindoline-1,3-diketone] | 11.9% | 1.01% |  |  | 10 to 50 nM | 0% | 8.14% | 0% | 8.1% | 12.1% | 67.5% |  | 2.21% | 14.7% | 0% | -1.31% |
| C=CC(=O)Nc1ccc(CCCCC)c2c1C(=O)N([C@H](CS(C)(=O)=O)c1ccc(OC)c(OCC)c1)C2=O [Example 29, (S)-2-[1-(3-ethoxy-4-methoxyphenyl)-2-alkylsulfonylethyl]-4-acrylamido-7-pentyl isoindoline-1,3-diketone] | 0% | 16.1% |  |  | 5 to 10 nM | 5.72% | 13% | 7.19% | 15.8% | 4.13% | 26% |  | 17.4% | 19.9% | 0% | -1.94% |
| CCCCCc1ccc(NC(=O)CCl)c2c1C(=O)N([C@H](CS(C)(=O)=O)c1ccc(OC)c(OCC)c1)C2=O [Example 25, (S)-2-[1-(3-ethoxy-4-methoxyphenyl)-2-alkylsulfonylethyl]-4-(chloroacetamido)-7-pentyl isoindoline-1,3-diketone] | 3.02% | 11.1% |  |  | 10 to 50 nM | 0% | 8.17% | 20.4% | 13.4% | 3.89% | 33.8% |  | 4.98% | 24.6% | 0% | 0.19% |
| CCCCCc1ccc(NC(=O)CCCCl)c2c1C(=O)N([C@H](CS(C)(=O)=O)c1ccc(OC)c(OCC)c1)C2=O [Example 5, (S)-2-[1-(3-ethoxy-4-methoxyphenyl)-2-alkylsulfonylethyl]-4-(γ-chlorobutyramido)-7-pentyl isoindoline-1,3-diketone] | 2.21% | 5.46% | 200 to 500 nM | < 100 nM | 10 to 50 nM | 0.66% | 8.39% | 0.83% | 9.01% | 8.26% | 30.8% | < 100 nM | 0% | 1.94% | 0.06% | -0.69% |
| CCCCC(=O)c1ccc(NC(C)=O)c2c1C(=O)N([C@H](CS(C)(=O)=O)c1ccc(OC)c(OCC)c1)C2=O [Example 56] |  |  | 200 to 500 nM | < 100 nM | 10 to 50 nM |  |  |  |  |  |  | < 100 nM |  |  |  |  |
| CCCCCc1ccc(NC(=O)CF)c2c1C(=O)N([C@H](CS(C)(=O)=O)c1ccc(OC)c(OCC)c1)C2=O [Example 28, (S)-2-[1-(3-ethoxy-4-methoxyphenyl)-2-alkylsulfonylethyl]-4-fluoroacetamido-7-pentyl isoindoline-1,3-diketone] | 29.1% | 0.04% |  |  | 5 to 10 nM | 0% | 4.16% | 0% | 5.83% | 1.46% | 24.8% |  | 0.55% | 10.5% | 3.69% | 6.44% |
| [2H]c1c([2H])c(NC(C)=O)c2c(c1CCCCC)C(=O)N([C@H](CS(C)(=O)=O)c1ccc(OC)c(OCC)c1)C2=O [Example 33] |  |  | < 200 nM | < 100 nM | < 5 nM |  |  |  |  |  |  | < 100 nM |  |  |  |  |
| CCCCC(O)c1ccc(NC(C)=O)c2c1C(=O)N([C@H](CS(C)(=O)=O)c1ccc(OC)c(OCC)c1)C2=O (mixture of isomers) [Example 55] |  |  | < 200 nM | < 100 nM | < 5 nM |  |  |  |  |  |  | < 100 nM |  |  |  |  |
